# Experimental data: the NIST ThermoML archive (doi:10.1021/je0340755)
# ± gives the expanded uncertainty stated by the source.
# Experiments:
# [1] = 101.33 kPa, Liquid; for viscosity: Capillary tube (Ostwald / Ubbelohde) method
# [2] = refractive index (Na D-line) (dimensionless); details: 298.15 K; 101.33 kPa; Liquid; Standard Abbe refractometry
# [3] = 298.15 K, Linear variable-path acoustic interferometer
# [4] = 308.15 K, Linear variable-path acoustic interferometer
# [5] = 318.15 K, Linear variable-path acoustic interferometer
# [6] = 328.15 K, Linear variable-path acoustic interferometer
# [7] = 338.15 K, Linear variable-path acoustic interferometer
SMILES,mass density ([1]; 298.15 K) [kg/m3],viscosity ([1]; 298.15 K) [mPa·s],"speed of sound [1, 3] [m/s]",mass density ([1]; 308.15 K) [kg/m3],viscosity ([1]; 308.15 K) [mPa·s],"speed of sound [1, 4] [m/s]",mass density ([1]; 318.15 K) [kg/m3],"speed of sound [1, 5] [m/s]",mass density ([1]; 328.15 K) [kg/m3],viscosity ([1]; 328.15 K) [mPa·s],"speed of sound [1, 6] [m/s]",mass density ([1]; 338.15 K) [kg/m3],viscosity ([1]; 338.15 K) [mPa·s],"speed of sound [1, 7] [m/s]",refractive index [2],speed of sound ([1]; 298.15 K) [m/s],speed of sound ([1]; 308.15 K) [m/s],speed of sound ([1]; 318.15 K) [m/s],viscosity ([1]; 318.15 K) [mPa·s],speed of sound ([1]; 328.15 K) [m/s],also measured
"CC(O)CO (stereo not given) [1,2-propanediol]",1032.77 ± 0.44,43.43 ± 0.21,1500.1 ± 2.2,1025.4 ± 0.42,24.25 ± 0.13,1488.9 ± 2.2,1017.32 ± 0.4,1438.1 ± 2.2,1009.56 ± 0.38,9.691 ± 0.079,1401 ± 2.2,1001.81 ± 0.36,7.044 ± 0.073,1382.8 ± 2.1,1.4314 ± 0.0004,,,,,,
"CC(O)C(C)O (stereo not given) [2,3-butanediol]",998.57 ± 2,44.68 ± 0.21,,992.11 ± 2,22.95 ± 0.12,,984.13 ± 2,,970.58 ± 2,7.722 ± 0.074,,961.97 ± 2,5.195 ± 0.069,,1.4366 ± 0.0004,1470.2 ± 7.9,1440 ± 7.8,1412.2 ± 7.7,12.8 ± 0.088,1392 ± 7.6,speed of sound ([1]; 338.15 K): 1373.9 ± 7.5 m/s
O [water],,0.89 ± 0.063,1498 ± 2.1,,0.719 ± 0.063,1519 ± 2.2,,1535.1 ± 2.2,,0.503 ± 0.063,1545 ± 2.2,,0.438 ± 0.063,1551 ± 2.2,1.3323 ± 0.0004,,,,0.596 ± 0.063,,
"OCCCCO [1,4-butanediol]",1012.57 ± 0.45,72.62 ± 0.5,,1006.4 ± 0.43,44.87 ± 0.21,,1000.76 ± 0.41,,,19.48 ± 0.11,,987.93 ± 0.45,13.49 ± 0.09,,1.4442 ± 0.0004,1605.1 ± 6.5,1588 ± 6.5,1570.8 ± 6.4,29.07 ± 0.15,1552.1 ± 6.4,speed of sound ([1]; 338.15 K): 1529 ± 6.3 m/s
"CC(O)CCO (stereo not given) [1,3-butanediol]",1000.03 ± 0.35,97.25 ± 1.1,,994.22 ± 0.37,52.5 ± 0.15,,988.7 ± 0.38,,979.18 ± 0.4,18.91 ± 0.11,,971.91 ± 0.42,12.28 ± 0.087,,1.439 ± 0.0004,1522.1 ± 6.3,1492.1 ± 6.2,1472 ± 6.1,30.49 ± 0.15,1453.9 ± 6.1,speed of sound ([1]; 338.15 K): 1436.1 ± 6 m/s
"CCC(O)CO (stereo not given) [1,2-butanediol]",998.86 ± 0.36,57.46 ± 0.2,1452 ± 2.2,991.42 ± 0.37,30.18 ± 0.15,1423.8 ± 2.2,983.93 ± 0.39,1396.2 ± 2.2,976.09 ± 0.41,10.9 ± 0.083,1387 ± 2.1,968.11 ± 0.43,7.257 ± 0.073,1366 ± 2.1,1.4374 ± 0.0004,,,,17.41 ± 0.1,,
"OCCCO [propan-1,3-diol]",1049.99 ± 0.49,40.07 ± 0.19,1636.1 ± 2.3,1043.71 ± 0.47,27.25 ± 0.14,1616 ± 2.3,1037.37 ± 0.45,1599.2 ± 2.2,1030.96 ± 0.43,11.28 ± 0.084,1575.9 ± 2.2,1024.47 ± 0.42,7.939 ± 0.075,1557 ± 2.2,1.4386 ± 0.0004,,,,17.01 ± 0.1,,
